Structures are written as SMILES.

In patent publication US20230233541A1, “SUBSTITUTED BENZAMIDES AS MODULATORS OF TREX1” (Constellation Pharmaceuticals, Inc., priority 2020, published 2023) one finds EC50 data, which are given here for 43 molecules.

Test [1] deals with T1, human TREX2 (residues M44-A279) (Homo sapiens, UniProt Q9BQ50).
T1 construct: human TREX2 (residues M44-A279, expressed in E. coli); His-Tev (His tag with TEV protease site) (N); made in house; host or cells: E. coli
T1 sequence (Q9BQ50 44-279 isoform Q9BQ50-1): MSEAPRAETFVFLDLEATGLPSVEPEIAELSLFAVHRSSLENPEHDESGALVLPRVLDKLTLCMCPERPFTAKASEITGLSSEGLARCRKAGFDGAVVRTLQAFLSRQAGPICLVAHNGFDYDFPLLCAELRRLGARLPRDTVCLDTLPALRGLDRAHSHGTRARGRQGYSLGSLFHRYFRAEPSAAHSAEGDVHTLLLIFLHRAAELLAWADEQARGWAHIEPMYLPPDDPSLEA
The test can be described thus: TREX2 Biochemical Assay (fluorescence assay, degradation of dsDNA substrate). To be noted: 2.5 nM TREX2, 60 nM dsDNA substrate, 25 minutes at room temperature; read-out: hTREX2 EC50. Put shortly:
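His-Tev-tagged human TREX2 (M44-A279, E. coli-expressed) at 2.5 nM final, with 60 nM TEX615/quencher-labelled dsDNA in pH 7.4 Tris buffer with MgCl2 and 1.0% DMSO, 10-point dose-response, 25 min at room temperature, then EDTA quench. Fluorescence read at 615 nm (ex 570 nm). IC50 from four-parameter fit against pre-quenched and no-inhibitor controls.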

For a further test, the target named is T2, full length human TREX1 (Homo sapiens, UniProt Q9NSU2).
T2 construct: N-terminally His-Tev tagged full length human TREX1; His-Tev (His tag with TEV protease site) (N); made in house; host or cells: E. coli
T2 sequence (Q9NSU2 1-314): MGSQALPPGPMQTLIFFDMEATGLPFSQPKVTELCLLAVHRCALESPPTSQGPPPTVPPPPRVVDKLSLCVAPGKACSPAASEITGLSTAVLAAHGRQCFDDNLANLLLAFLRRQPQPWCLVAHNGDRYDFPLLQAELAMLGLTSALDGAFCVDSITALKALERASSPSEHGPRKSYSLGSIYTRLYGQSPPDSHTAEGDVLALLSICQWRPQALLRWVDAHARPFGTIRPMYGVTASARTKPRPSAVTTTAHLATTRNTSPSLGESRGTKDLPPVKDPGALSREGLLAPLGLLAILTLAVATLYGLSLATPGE
In words: TREX1 Biochemical Assay (fluorescence assay, degradation of dsDNA substrate). The following applies: 150 pM TREX1, 60 nM dsDNA substrate, 25 minutes at room temperature; read-out: hTREX1 EC50. Put shortly: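 E. coli-expressed His-Tev-tagged full-length TREX1 (150 pM) with 60 nM quenched-fluorophore dsDNA in Tris pH 7.4, 150 mM NaCl, 100 mM MgCl2, 1% DMSO, 25 min room temperature, 10-point dose-response. EDTA stop; fluorescence 615 nm (ex 570 nm); IC50 from four-parameter fit against pre-quenched and no-inhibitor controls.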

As a reminder, the EC50 is the concentration giving half of the maximal effect. In the case of `O=C(O)Cn1cc(CN(Cc2ccc(Cl)cc2Cl)C(=O)c2cc(F)cc(F)c2)cn1` [Compound 165, 2-(4-((N-(2,4-dichlorobenzyl)-3,5-difluorobenzamido)methyl)-1H-pyrazol-1-yl)acetic acid], the EC50 in test [1] was above 100 µM; on full length human TREX1, 1 to 10 µM.
The matching figures for `CNc1cc(CN(Cc2cccc(Cl)c2Cl)C(=O)c2cc(F)cc(F)c2)cnc1C(=O)O` [Compound 240]: 10 to 100 µM and below 0.1 µM.
The matching figures for `N#Cc1ccccc1CN(Cc1ccc(C(=O)O)nc1)C(=O)c1cc(F)cc(F)c1` [Compound 192]: above 100 µM and above 10 µM.
In the case of `CC[C@@H](c1cccc(OC)c1Cl)N(Cc1ccc(C(=O)O)nc1)C(=O)c1cc(F)cc(F)c1` [Compound 167], the EC50 in test [1] is 1 to 10 µM; on full length human TREX1, below 0.1 µM.
As to `Cc1cc(C(=O)N(Cc2cccnc2)Cc2cc(Cl)cc(Cl)c2)ccc1Br` [Compound 78], the EC50 is above 100 µM in test [1] and above 10 µM at full length human TREX1.
Taken in the same sequence, the figures for `O=C(c1cc(F)cc(F)c1)N(Cc1cccnc1)[C@@H](CCO)c1ccc(Cl)cc1Cl` [Compound 261] were 10 to 100 µM and 0.1 to 1 µM.
Taken in the same sequence, the figures for `O=C(c1cccc(Cl)c1)N(Cc1cccnc1)Cc1cc(Cl)cc(Cl)c1` [Compound 34] were above 100 µM and above 10 µM.
As for `COc1cc(C(=O)N(Cc2cccnc2)Cc2ccc(Cl)cc2Cl)ccc1F` [Compound 80], the EC50 in test [1] was above 100 µM; at full length human TREX1, above 10 µM.
For `O=C(c1cccc(F)c1)N(Cc1cncnc1)Cc1ccc(Cl)cc1Cl` [Compound 106], the EC50 is above 100 µM in test [1] and 1 to 10 µM at full length human TREX1.
Taken in the same sequence, the figures for `O=C(O)c1ccc(CN(Cc2cc(Cl)ccc2Cl)C(=O)c2cc(F)cc(F)c2)cn1` [Compound 187] were 1 to 10 µM and below 0.1 µM.
On to `COc1cccc([C@@H](C)N(Cc2ccc(-c3ccn[nH]3)nc2)C(=O)c2cc(F)cc(F)c2)c1Cl` [Compound 225], for which the values for the EC50 (in test [1]; at full length human TREX1) were 10 to 100 µM and 0.1 to 1 µM, respectively.
`O=C(c1cccc(F)c1)N(Cc1ccccn1)Cc1ccc(Cl)cc1Cl` [Compound 95]: the EC50 is above 100 µM in test [1] and above 10 µM on full length human TREX1.
Turning to `O=C(O)c1ccc(CN(Cc2ncc3ccccc3c2Cl)C(=O)c2cc(F)cc(F)c2)cn1` [Compound 190], the EC50 was 1 to 10 µM in test [1] and below 0.1 µM at full length human TREX1.
In the case of `O=C(c1cccc(F)c1)N(Cc1cccnc1)[C@H](CO)c1ccc(Cl)cc1Cl` (single isomer, unassigned) [Compound 162], the results for the EC50 (in test [1]; on full length human TREX1) were 10 to 100 µM and 0.1 to 1 µM, respectively.
For the molecule `O=C(c1cc(F)cc(F)c1)N(Cc1cccnc1CO)Cc1cccc(Cl)c1Cl` [Compound 180], the results for the EC50 (in test [1]; on full length human TREX1) were 1 to 10 µM and 0.1 to 1 µM, respectively.
The matching figures for `O=C(c1ccc(Cl)cc1)N(Cc1cccnc1)Cc1cc(Cl)cc(Cl)c1` [Compound 29]: above 100 µM and above 10 µM.
Turning to `O=C(c1cc(F)cc(F)c1)N(Cc1ccc(-c2cc(=O)[nH][nH]2)nc1)Cc1ccccc1Cl` [Compound 221], the values for the EC50 (in test [1]; at full length human TREX1) were 10 to 100 µM and 0.1 to 1 µM, respectively.
For the molecule `NC(=O)c1ccc(CN(Cc2ccc(Cl)cc2Cl)C(=O)c2cccc(F)c2)cn1` [Compound 143, 5-({N-[(2,4-dichlorophenyl)methyl]-1-(3-fluorophenyl)formamido}methyl)pyridine-2-carboxamide], the EC50 was above 100 µM in test [1] and above 10 µM at full length human TREX1.
The matching figures for `O=C(c1cccc(Oc2ccccc2)c1)N(Cc1cccnc1)Cc1ccc(Cl)cc1Cl` [Compound 31]: above 100 µM and above 10 µM.
On to `O=C(c1ccc(F)c(F)c1)N(Cc1cccnc1)Cc1ccc(Cl)cc1Cl` [Compound 101], for which the concentration giving a half-maximal response (EC50) was above 100 µM in test [1] and 1 to 10 µM on full length human TREX1.
In the case of `COc1cc(C(=O)N(Cc2cccnc2)Cc2ccc(Cl)cc2Cl)cc(Cl)c1O` [Compound 22], the EC50 in test [1] was above 100 µM; at full length human TREX1, above 10 µM.
Consider `CC[C@@H](c1cccc(OC)c1C(F)(F)F)N(Cc1ccc(C(=O)O)nc1)C(=O)c1cc(F)cc(F)c1` [Compound 197], for which the EC50 in test [1] is 1 to 10 µM; at full length human TREX1, below 0.1 µM.
Taken in the same sequence, the figures for `Cc1cc(C(=O)O)ncc1CN(Cc1cccc(Cl)c1Cl)C(=O)c1cc(F)cc(F)c1` [Compound 205] were below 1 µM and below 0.1 µM.
For `CNC(=O)c1ccc(CN(Cc2ccc(Cl)cc2Cl)C(=O)c2cccc(F)c2)cn1` [Compound 144, 5-({N-[(2,4-dichlorophenyl)methyl]-1-(3-fluorophenyl)formamido}methyl)-N-methylpyridine-2-carboxamide], the EC50 in test [1] is above 100 µM; on full length human TREX1 it was 1 to 10 µM.
As for `O=C(O)c1ccc(CN(Cc2sc(Cl)nc2Cl)C(=O)c2cc(F)cc(F)c2)cn1` [Compound 200], the EC50 in test [1] was 10 to 100 µM; at full length human TREX1, 0.1 to 1 µM.
The matching figures for `COc1cccc([C@H](C)N(Cc2ccc(-c3ccn[nH]3)nc2)C(=O)c2cc(F)cc(F)c2)c1Cl` [Compound 224]: 10 to 100 µM and 1 to 10 µM.
The matching figures for `CC[C@H](c1cccc(Cl)c1Cl)N(Cc1ccc(C(=O)O)nc1)C(=O)c1cc(F)cc(F)c1` [Compound 254]: 1 to 10 µM and below 0.1 µM.
The matching figures for `CC[C@H](c1cccc(Cl)c1Cl)N(Cc1cnc(C(=O)O)c(N)c1)C(=O)c1cc(F)cc(F)c1` [Compound 239]: 1 to 10 µM and below 0.1 µM.
Consider `O=C(c1ccc(CO)cc1)N(Cc1cccnc1)Cc1ccc(Cl)cc1Cl` [Compound 83], for which the EC50 in test [1] was above 100 µM; on full length human TREX1, above 10 µM.
As to `O=C(c1ccc(Cl)cc1Br)N(Cc1cccnc1)Cc1cc(Cl)cc(Cl)c1` [Compound 63], the EC50 in test [1] is above 100 µM; at full length human TREX1, above 10 µM.
Taken in the same sequence, the figures for `COC(=O)CC[C@@H](c1ccccc1Cl)N(Cc1cccnc1)C(=O)c1cc(F)cc(F)c1` [Compound 242] were 10 to 100 µM and below 0.1 µM.
The matching figures for `CC(C)(C)c1ccc(C(=O)N(Cc2cccnc2)Cc2cc(Cl)cc(Cl)c2)cc1` [Compound 61]: above 100 µM and above 10 µM.
Consider `O=C(O)c1ncc(CN(Cc2cccc(Cl)c2Cl)C(=O)c2cc(F)cc(F)c2)cc1Cl` [Compound 204], for which the EC50 in test [1] fell in the range of 1 to 10 µM; on full length human TREX1, 0.1 to 1 µM.
As to `O=C(c1ccccc1Oc1ccccc1)N(Cc1cccnc1)Cc1ccc(Cl)cc1Cl` [Compound 44], the values for the EC50 (in test [1]; on full length human TREX1) were above 100 µM and above 10 µM, respectively.
The matching figures for `O=C(c1cocn1)N(Cc1cccnc1)Cc1ccc(Cl)cc1Cl` [Compound 113]: above 100 µM and above 10 µM.
Taken in the same sequence, the figures for `O=C(O)c1ccc(CN(Cc2ccccc2Cl)C(=O)c2cc(F)cc(F)c2)cn1` [Compound 152] were 1 to 10 µM and below 0.1 µM.
The matching figures for `COc1ccccc1CN(Cc1cccnc1)C(=O)c1cccc(F)c1` [Compound 125]: above 100 µM and above 10 µM.
Consider `O=C(c1cccc(F)c1)N(Cc1cccnc1)Cc1cc(Cl)cc(Cl)c1` [Compound 23], for which the results for the EC50 (in test [1]; at full length human TREX1) were above 100 µM and above 10 µM, respectively.
The matching figures for `O=C(O)c1ccc(CN(Cc2ccc(Cl)cc2Cl)C(=O)c2cccc(F)c2)cn1` [Compound 142, 5-({N-[(2,4-dichlorophenyl)methyl]-1-(3-fluorophenyl)formamido}methyl)pyridine-2-carboxylic acid]: 10 to 100 µM and 0.1 to 1 µM.
Taken in the same sequence, the figures for `CC[C@H](c1cccc(OC)c1Cl)N(Cc1ccc(C(=O)O)nc1)C(=O)c1cc(F)cc(F)c1` [Compound 166] were 1 to 10 µM and below 0.1 µM.
Taken in the same sequence, the figures for `O=C(c1ccccc1)N(Cc1cccnc1)Cc1cc(Cl)cc(Cl)c1` [Compound 1, N-[(3,5-dichlorophenyl)methyl]-N-[(pyridin-3-yl)methyl]benzamide] were above 100 µM and above 10 µM.
For the molecule `CCOc1cccc([C@H](CC)N(Cc2ccc(C(=O)O)nc2)C(=O)c2cc(F)cc(F)c2)c1Cl` [Compound 229], the EC50 is 1 to 10 µM in test [1] and below 0.1 µM on full length human TREX1.
The matching figures for `CC(C)c1ccc(C(=O)N(Cc2cccnc2)Cc2cc(Cl)cc(Cl)c2)cc1` [Compound 51]: above 100 µM and above 10 µM.
